In patent publication US20030153512A1 (priority 2000, published 2003):
Converted amounts (≈) assume the structure as drawn.

Experiments:
Epstein-Barr virus = test: Inhibition of EBV induction (reactivation) in Raji-DR-LUC cells, luciferase activity; type: cell-based; conditions: 50,000 Raji-DR cells, 10 nM TPA, 72 hours
Experimental: The current studies were carried out with Raji-DR-LUC cells.
For this purpose, 50,000 Raji-DR cells were treated with 10 nM TPA minus/plus inhibitor (various concentrations) in a volume of 100 μl in a CO2 incubator for 72 hours. Following washing with PBS, the cells are lyzed; the luciferase activity is determined in luciferase buffer (20 mM tricins, 8 mM MgSO4, 0.1 mM EDTA, 30 mM DTE, pH 7.8) with luciferin/CoA ATP as a substrate in an always equal amount of cell lyzate. The induced luciferase activity per μg protein is determined in comparison with a calibration curve having an authentic luciferase. Inhibiting agents of EBV induction result in an induction of luciferase reduced as compared with the TPA control.

[1] = system: granulocytes (PMN) from human blood; test: Inhibition of the TPA-stimulated "oxygen burst" of granulocytes (chemiluminescence); type: cell-based; conditions: 100,000 granulocytes, TPA 100 nM, luminol and/or lucigenin, CL integral over one hour
Experimental: These studies were carried out by means of the inhibition of the “oxygen burst” of granulocytes (PMN) from human blood according to Hergenhahn et al. (1991) J. Cancer Res. Clin. Oncol. 117, 385-395, and Bouvier, Hergenhahn et al. (1993) Carcinogenesis 14, 1573-8. The granulocyte fraction from heparinized blood is enriched by agglutination of the erythrocytes with 2.5% dextran in PBS (30 min. at room temperature), freed from residual erythrocytes by lysis and used after washing with PBS in the test. In a total volume of 1 ml, 100,000 granulocytes each are admixed with luminol and/or lucigenin and heated to 37° C. in the chemiluminescence (CL) measuring device Biolumat LB 953 (EG&G Berthold, Wildbad); the cells are then stimulated with TPA at a final concentration of 100 nM. The CL curves are tracked for one hour; the integral underneath the curve is used as a standard for chemiluminescence.
When inhibitory substances are used, a concentration-dependent inhibitory effect results which manifests itself as a late rise, reduced amplitude of the maximum and partially as an early drop of the peak.

[2] = Water solubility of saturated solutions in argon-saturated water, content by HPLC; type: physicochemical; conditions: saturated solution at room temperature in argon-saturated water, HPLC UV 420 nm
Experimental: HPLC conditions: column lichrospher-100-RP18-5 μ, 125×4 mm Running agent/gradient/flow Acetonitrile/acetic acid 0.2 and/or 2%, 1 ml/min Detection: UV 420 nm
The relevant straight calibration line was respectively determined with the individual compounds. […] The content of 20 μl each of the saturated solutions was determined by means of HPLC.

Raji cells = test: Uptake in Raji cells by fluorescence microscopy; type: cell-based
Experimental: These studies were carried out by means of fluorescence microscopy, since curcumin and its two derivatives show fluorescence. […] Aliquots of the cells in medium were placed by pipetting onto poly-L-lysin-coated slides (to adhere the cells); the cells were covered with a cover glass after 30 minutes and stimulated by an appropriate filter using U.V. light.

cell cultures = conditions: described in the literature; cited from earlier work
[3] = Raji cells, 3 hours, 15 μM, image analysis

Row | Molecule | EBV inhibitory effect, rank order in series (Epstein-Barr virus) | antioxidative effect, rank order in series [1] | water solubility [2] [µg/mL] | fluorescence of cells (cell-associated compound) (Raji cells; [3]) | factor by which cell fluorescence was reduced (versus curcumin) (Raji cells; [3]) | concentration in the medium at which chemopreventive effects occurred (cell cultures) | solubility ([2]; thermodynamic from solid) [µg/mL] | time of maximum uptake in Raji cells (Raji cells; preliminary tests) [h]
1 | 8,8′-bis-(B-D-glucopyranosyl)-curcumin [Curcumin diglucoside] | curcumin>curcumin monoglucoside>curcumin diglucoside | curcumin >>curcumin monoglucoside curcumin diglucoside | > 10700 | just visible | – | – | – | –
2 | 8-(β-D-glucopyranosyl)curcumin [Curcumin monoglucoside] | curcumin>curcumin monoglucoside>curcumin diglucoside | curcumin >>curcumin monoglucoside curcumin diglucoside | 13.2 ± 0.9 | – | 10-100 | – | – | –
3 | COc1cc(C=CC(=O)CC(=O)C=Cc2ccc(O)c(OC)c2)ccc1O [Curcumin, 1,7-bis(4-hydroxy-3-methoxyphenyl)-1,6-heptadiene-3,5-dione, reference compound] | curcumin>curcumin monoglucoside>curcumin diglucoside | curcumin >>curcumin monoglucoside curcumin diglucoside | – | very bright fluorescence | – | at least 10 μM | 4 (≈ 10.9 µM) | 2 to 3
